Reference: US8063071B2 (GlaxoSmithKline, LLC, priority 2007, dated 2011)
pIC50: −log10 of the molar value. Counter-ions that a name gives are not always drawn.

Tests used:
[1] = biological target: T1, Recombinant human IKKβ (residues 1-737) (Homo sapiens, UniProt O14920); assay: IKK2 assay (TR-FRET); assay type: biochemical; settings: ATP 1 μM final, read-out: pIC50 against IKK2 (converted)
T1 construct: Recombinant human IKKβ (residues 1-737); GST (C); made in house
T1 sequence (O14920 1-737): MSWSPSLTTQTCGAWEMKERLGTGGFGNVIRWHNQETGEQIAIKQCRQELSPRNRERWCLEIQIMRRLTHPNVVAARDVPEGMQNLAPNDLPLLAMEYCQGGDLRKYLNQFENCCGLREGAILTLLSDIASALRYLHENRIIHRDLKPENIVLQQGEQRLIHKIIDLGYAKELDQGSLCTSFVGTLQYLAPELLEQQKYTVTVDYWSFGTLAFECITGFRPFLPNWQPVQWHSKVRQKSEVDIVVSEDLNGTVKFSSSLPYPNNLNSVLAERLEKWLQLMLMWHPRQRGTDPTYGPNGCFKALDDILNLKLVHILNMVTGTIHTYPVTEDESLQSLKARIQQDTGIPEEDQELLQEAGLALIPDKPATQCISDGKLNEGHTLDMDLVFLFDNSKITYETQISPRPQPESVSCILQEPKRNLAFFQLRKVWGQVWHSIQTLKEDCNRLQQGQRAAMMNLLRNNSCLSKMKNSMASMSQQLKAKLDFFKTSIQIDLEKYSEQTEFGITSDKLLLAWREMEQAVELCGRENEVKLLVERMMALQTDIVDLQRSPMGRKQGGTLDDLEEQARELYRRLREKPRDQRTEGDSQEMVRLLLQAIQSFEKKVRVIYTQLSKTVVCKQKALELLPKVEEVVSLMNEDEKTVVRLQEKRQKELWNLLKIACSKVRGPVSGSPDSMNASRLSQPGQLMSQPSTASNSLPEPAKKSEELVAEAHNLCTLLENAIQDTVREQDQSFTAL
Method in brief: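 Baculovirus-expressed C-terminal GST-tagged IKKβ (0.5-5 nM final) in HEPES pH 7.4, MgCl2, CHAPS, DTT, BSA with 1.7% DMSO; 25 nM GST-IB substrate and 1 μM ATP, 15 min at room temperature. EDTA stop; phospho-Ser32/36 detected by Eu-antibody/APC-anti-GST TR-FRET, 665/620 nm ratio.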

[2] = system: human monocyte stimulated cytokine production (TNF-α); assay: Monocyte assay (LPS-stimulated TNF-α production); assay type: cell-based; settings: for pIC50: 24 h, 200 ng/mL LPS, TNF-α by ELISA; for inhibition at 0.3 µM: read-out: inhibition at 300 nM in the monocyte assay
Method in brief: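 Human CD14+ monocytes were purified from blood and plated at 1×10^6 cells/mL in RPMI 1640 with 10% FBS. Compound was added 30 min before stimulation with 200 ng/mL LPS (0.1% DMSO final), followed by 24 hrs at 37 C. Supernatant TNF-α was measured by ELISA, and viability by trypan blue exclusion.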

Structure (SMILES) | IC50 [1] | pIC50 [2] | inhibition at 0.3 µM [2]
CCS(=O)(=O)N1CCC(c2c[nH]c3c(C(N)=O)cc(-c4csc(CN(C)CCC#N)c4)cc23)CC1 [Example 43, 5-(5-{[(2-cyanoethyl)(methyl)amino]methyl}-3-thienyl)-3-[1-(ethylsulfonyl)-4-piperidinyl]-1H-indole-7-carboxamide trifluoroacetate] | ≤ 10 µM | ≥ 5.82 | –
CCS(=O)(=O)N1CCC(c2c[nH]c3c(C(N)=O)cc(-c4cccc(CN5CCCC5c5nccs5)c4)cc23)CC1 (stereo not shown) [Example 10, 3-[1-(ethylsulfonyl)-4-piperidinyl]-5-(3-{[2-(1,3-thiazol-2-yl)-1-pyrrolidinyl]methyl}phenyl)-1H-indole-7-carboxamide] | ≤ 10 µM | ≥ 5.82 | –
CCS(=O)(=O)N1CCC(c2c[nH]c3c(C(N)=O)cc(-c4csc(CN5CCOCC5)c4)cc23)CC1 [Example 236, 3-[1-(ethylsulfonyl)-4-piperidinyl]-5-[5-(4-morpholinylmethyl)-3-thienyl]-1H-indole-7-carboxamide trifluoroacetate] | ≤ 10 µM | ≥ 5.82 | –
CCS(=O)(=O)N1CCC(c2c[nH]c3c(C(N)=O)cc(-c4csc(CN(C)C5CCCC5)c4)cc23)CC1 [Example 71, 5-(5-{[cyclopentyl(methyl)amino]methyl}-3-thienyl)-3-[1-(ethylsulfonyl)-4-piperidinyl]-1H-indole-7-carboxamide trifluoroacetate] | ≤ 10 µM | ≥ 5.82 | –
CCNCc1cc(-c2cc(C(N)=O)c3[nH]cc(C4CCN(S(=O)(=O)CC)CC4)c3c2)cs1 [Example 233, 5-{5-[(ethylamino)methyl]-3-thienyl}-3-[1-(ethylsulfonyl)-4-piperidinyl]-1H-indole-7-carboxamide trifluoroacetate] | ≤ 10 µM | ≥ 5.82 | –
CCS(=O)(=O)N1CCC(c2c[nH]c3c(C(N)=O)cc(-c4csc([C@@H](C)N5CCCC5)c4)cc23)CC1 [Example 213, 3-[1-(ethylsulfonyl)-4-piperidinyl]-5-{5-[(1R)-1-(1-pyrrolidinyl)ethyl]-3-thienyl}-1H-indole-7-carboxamide] | ≤ 10 µM | ≥ 5.82 | –
CCS(=O)(=O)N1CCC(c2c[nH]c3c(C(N)=O)cc(-c4csc(CN(C)C)n4)cc23)CC1 [Example 355, 5-{2-[(dimethylamino)methyl]-1,3-thiazol-4-yl}-3-[1-(ethylsulfonyl)-4-piperidinyl]-1H-indole-7-carboxamide trifluoroacetate] | ≤ 10 µM | – | 0 to 60%
CCS(=O)(=O)N1CCC(c2c[nH]c3c(C(N)=O)cc(-c4cccc(CNC[C@@H]5CCCO5)c4)cc23)CC1 [Example 307, 3-[1-(ethylsulfonyl)-4-piperidinyl]-5-[3-({[(2S)-tetrahydro-2-furanylmethyl]amino}methyl)phenyl]-1H-indole-7-carboxamide trifluoroacetate] | ≤ 10 µM | ≥ 5.82 | –
CCS(=O)(=O)N1CCC(c2c[nH]c3c(C(N)=O)cc(-c4csc(CN(C)CCSCCO)c4)cc23)CC1 [Example 431, 3-[1-(ethylsulfonyl)-4-piperidinyl]-5-(5-{[{2-[(2-hydroxyethyl)thio]ethyl}(methyl)amino]methyl}-3-thienyl)-1H-indole-7-carboxamide] | ≤ 10 µM | – | 0 to 60%
CCNCc1cncc(-c2cc(C(N)=O)c3[nH]cc(C4CCN(S(=O)(=O)CC)CC4)c3c2)c1 [Example 177, 5-{5-[(ethylamino)methyl]-3-pyridinyl}-3-[1-(ethylsulfonyl)-4-piperidinyl]-1H-indole-7-carboxamide] | ≤ 10 µM | – | 0 to 60%
CCS(=O)(=O)N1CCC(c2c[nH]c3c(C(N)=O)cc(-c4cccc(CNC5CC5)c4)cc23)CC1 [Example 31, 5-{3-[(cyclopropylamino)methyl]phenyl}-3-[1-(ethylsulfonyl)-4-piperidinyl]-1H-indole-7-carboxamide] | ≤ 10 µM | ≥ 5.82 | –
CCCNCc1ccc(-c2cc(C(N)=O)c3[nH]cc(C4CCN(S(=O)(=O)CC)CC4)c3c2)cc1 [Example 141, 3-[1-(ethylsulfonyl)-4-piperidinyl]-5-{4-[(propylamino)methyl]phenyl}-1H-indole-7-carboxamide trifluoroacetate] | ≤ 10 µM | ≥ 5.82 | –
CCS(=O)(=O)N1CCC(c2c[nH]c3c(C(N)=O)cc(-c4cccc(CCNCC(C)C)c4)cc23)CC1 [Example 345, 3-[1-(ethylsulfonyl)-4-piperidinyl]-5-(3-{2-[(2-methylpropyl)amino]ethyl}phenyl)-1H-indole-7-carboxamide trifluoroacetate] | ≤ 10 µM | – | 0 to 60%
CCS(=O)(=O)N1CCC(c2c[nH]c3c(C(N)=O)cc(-c4cccc(CN5CCCC(CO)C5)c4)cc23)CC1 (stereo not shown) [Example 7, 3-[1-(ethylsulfonyl)-4-piperidinyl]-5-(3-{[3-(hydroxymethyl)-1-piperidinyl]methyl}phenyl)-1H-indole-7-carboxamide] | ≤ 10 µM | ≥ 5.82 | –
CCS(=O)(=O)N1CCC(c2c[nH]c3c(C(N)=O)cc(-c4ccnc(N(C)C)c4)cc23)CC1 [Example 202, 5-[2-(dimethylamino)-4-pyridinyl]-3-[1-(ethylsulfonyl)-4-piperidinyl]-1H-indole-7-carboxamide trifluoroacetate] | ≤ 10 µM | < 6.00 | –
CCS(=O)(=O)N1CCC(c2c[nH]c3c(C(N)=O)cc(-c4cc(CNCC(C)C)ccc4F)cc23)CC1 [Example 335, 3-[1-(ethylsulfonyl)-4-piperidinyl]-5-(2-fluoro-5-{[(2-methylpropyl)amino]methyl}phenyl)-1H-indole-7-carboxamide trifluoroacetate] | ≤ 10 µM | ≥ 5.82 | –
CCS(=O)(=O)N1CCC(c2c[nH]c3c(C(N)=O)cc(-c4cccc(CNC(C)C)c4)cc23)CC1 [Example 25, 3-[1-(ethylsulfonyl)-4-piperidinyl]-5-(3-{[(1-methylethyl)amino]methyl}phenyl)-1H-indole-7-carboxamide] | ≤ 10 µM | ≥ 5.82 | –
CCS(=O)(=O)N1CCC(c2c[nH]c3c(C(N)=O)cc(-c4csc(CNCC5CCOCC5)c4)cc23)CC1 [Example 120, 3-[1-(ethylsulfonyl)-4-piperidinyl]-5-(5-{[(tetrahydro-2H-pyran-4-ylmethyl)amino]methyl}-3-thienyl)-1H-indole-7-carboxamide trifluoroacetate] | ≤ 10 µM | ≥ 5.82 | –
CCS(=O)(=O)N1CCC(c2c[nH]c3c(C(N)=O)cc(-c4ccc(CNC5CCCC5)s4)cc23)CC1 [Example 189, 5-{5-[(cyclopentylamino)methyl]-2-thienyl}-3-[1-(ethylsulfonyl)-4-piperidinyl]-1H-indole-7-carboxamide] | ≤ 10 µM | – | 0 to 60%
CCOC(=O)N(C)Cc1cc(-c2cc(C(N)=O)c3[nH]cc(C4CCN(S(=O)(=O)CC)CC4)c3c2)cs1 [Example 433, ethyl[(4-{7-(aminocarbonyl)-3-[1-(ethylsulfonyl)-4-piperidinyl]-1H-indol-5-yl}-2-thienyl)methyl]methylcarbamate] | ≤ 10 µM | – | 0 to 60%
CCS(=O)(=O)N1CCC(c2c[nH]c3c(C(N)=O)cc(-c4cccc(CNC(=O)C5CCCC5)c4)cc23)CC1 [Example 362, 5-(3-{[(cyclopentylcarbonyl)amino]methyl}phenyl)-3-[1-(ethylsulfonyl)-4-piperidinyl]-1H-indole-7-carboxamide trifluoroacetate] | ≤ 10 µM | < 6.00 | –
CCS(=O)(=O)N1CCC(c2c[nH]c3c(C(N)=O)cc(-c4cccc(CN(C)CCN(C)C)c4)cc23)CC1 [Example 5, 5-(3-{[[2-(dimethylamino)ethyl](methyl)amino]methyl}phenyl)-3-[1-(ethylsulfonyl)-4-piperidinyl]-1H-indole-7-carboxamide] | ≤ 10 µM | ≥ 5.82 | –
CCS(=O)(=O)N1CCC(c2c[nH]c3c(C(N)=O)cc(-c4ccc(CN(C)C)cc4)cc23)CC1 [Example 146, 5-{4-[(dimethylamino)methyl]phenyl}-3-[1-(ethylsulfonyl)-4-piperidinyl]-1H-indole-7-carboxamide] | ≤ 10 µM | < 6.00 | –
